Assay results published in patent US9511052B2, “Mineralocorticoid receptor antagonists” (Merck Sharp & Dohme Corp., priority 2012, dated 2016).

Target: T1, full-length human Mineralocorticoid Receptor (MR) (Homo sapiens, UniProt P08235)
T1 construct: host or cells: PathHunter CHO-K1 MR cells
T1 sequence (P08235 1-984): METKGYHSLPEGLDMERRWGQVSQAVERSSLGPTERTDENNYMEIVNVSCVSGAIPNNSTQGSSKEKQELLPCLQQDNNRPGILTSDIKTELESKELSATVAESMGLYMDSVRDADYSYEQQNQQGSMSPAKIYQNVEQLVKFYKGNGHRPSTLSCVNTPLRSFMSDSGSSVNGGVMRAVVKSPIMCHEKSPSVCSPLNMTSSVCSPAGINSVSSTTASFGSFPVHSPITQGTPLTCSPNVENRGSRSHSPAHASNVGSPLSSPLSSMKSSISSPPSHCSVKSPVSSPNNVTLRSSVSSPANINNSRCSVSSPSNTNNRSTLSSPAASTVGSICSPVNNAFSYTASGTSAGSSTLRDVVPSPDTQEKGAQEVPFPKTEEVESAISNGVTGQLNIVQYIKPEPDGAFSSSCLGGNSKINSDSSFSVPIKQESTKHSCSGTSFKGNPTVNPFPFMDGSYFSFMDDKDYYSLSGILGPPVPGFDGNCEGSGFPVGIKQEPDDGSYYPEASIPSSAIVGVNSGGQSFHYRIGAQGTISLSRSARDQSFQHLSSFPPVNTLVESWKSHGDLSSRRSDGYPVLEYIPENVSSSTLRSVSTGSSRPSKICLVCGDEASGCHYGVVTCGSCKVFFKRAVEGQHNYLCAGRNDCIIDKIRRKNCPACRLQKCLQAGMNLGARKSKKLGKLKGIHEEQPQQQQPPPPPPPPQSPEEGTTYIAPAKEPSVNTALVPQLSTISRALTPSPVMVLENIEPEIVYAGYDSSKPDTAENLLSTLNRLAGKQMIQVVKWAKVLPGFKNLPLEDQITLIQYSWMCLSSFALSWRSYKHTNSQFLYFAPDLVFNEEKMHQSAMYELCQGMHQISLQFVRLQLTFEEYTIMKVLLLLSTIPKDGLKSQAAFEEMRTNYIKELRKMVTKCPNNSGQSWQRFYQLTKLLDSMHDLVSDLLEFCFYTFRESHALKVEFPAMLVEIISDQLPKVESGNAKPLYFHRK
Test: human MR NH Pro assay (PathHunter Protein:Protein interaction assay), MR antagonism
Assay type: cell-based
Details: IP = inflection point of the dose-response curve; CHO-K1 cells overexpressing human MR, aldosterone about 0.3 nM to about 1 nM, 6 hours at 37° C.
From the text: The activity of the compounds of the present invention regarding mineralocorticoid receptor antagonism can be evaluated using the following assay.
Assessment of MR Potency in HMR NH Pro Assay
The human MR NH Pro assay is a commercially available PathHunter™ Protein:Protein interaction assay (DiscoveRx; http://www.discoverx.com/nhrs/prod-nhrs.php) that measures the ability of compounds to antagonize full-length human Mineralocorticoid Receptor (MR) binding to a coactivator peptide.
Stock solution was prepared at 10 μM in DMSO and stored at −20° C. for assay, dilute in assay media to 1.8 or 6 nM (6× of final concentration=about 0.3 nM to about 1.0 nM)
5. Cell line: PathHunter CHO-K1 MR cells Cat #93-0456C2, Lot No: 09B0913, from operation liquid nitrogen stock.
6. Control Antagonist: Spironolactone: Sigma #S-3378 and Eplerenone Sigma #107724-20-9 (10 mM stock concentration also prepared in DMSO and stored at −20° C.).
1. Cells are grown in F12+FBS+Hygromycin+pen/strep+Genetin
2. Cells are collected with 0.05% trypsin and the cell suspension is spun and resuspended in a volume of F12+1.5% CD-FBS and counted.
3. The cells concentration was adjusted to 4×10^5 cells/mL.
4. Cells were (25 μL/well) added to the wells of a 384 well plate.
5. The plate was then incubated at 37° C. over night in a humidified incubator with 5% CO2.
6. Test compounds were titrated starting at 4.4 mM, 10-point titration in 1:3 dilution.
Protocol for 384 well plate format: 6 hr treatment:
1. 10K exponentially growing cells/well (25 μL) were resuspended in assay media and plated into each well using the Multidrop (Thermo Electron) (use white wall, clear bottom assay plates (Costar #3570) and incubated overnight at 37° C., 5% CO2.
2. 0.25 μL 120× test compound (final DMSO concentration should be <1%) was added to each well n=2, 10 point titrations starting at 36.7 μM final concentration.
4. 5 μL of assay media was added to all wells in column 23 and 24.
5. Cells were then incubated for 6 hrs at 37° C., 5% CO2.
6. 15 μL 3× DiscoveRx detection reagent was then added to each well.
7. Plates were incubated for 1 hour at room temperature in the dark.
8. Plates were read on Envision (PerkinElmer) luminesence plate reader and analyzed using ADA.

Compound | IC50 [nM]
CCC(C(N)=O)(c1ccc(S(F)(F)(F)(F)F)cc1)n1ncc2c(NS(C)(=O)=O)cccc21 (racemic) [Compound 27, 2-{4-[(methylsulfonyl)amino]-1H-indazol-1-yl}-2-[4-(pentafluoro-λ^6-sulfanyl)phenyl]butanamide] | 3610
CCC(c1ccc(Br)cc1)(C(C)O)n1ncc2c(NS(C)(=O)=O)cccc21 (single isomer, unassigned) [Compound 3, N-(1-(3-(4-bromophenyl)-2-hydroxypentan-3-yl)-1H-indazol-4-yl) methanesulfonamide] | 733
CCC(c1ccc(Br)cc1)(C(C)O)n1ncc2c(NS(C)(=O)=O)cccc21 (single isomer, unassigned) [Compound 4, N-(1-(3-(4-bromophenyl)-2-hydroxypentan-3-yl)-1H-indazol-4-yl) methanesulfonamide] | 728
CCC(O)C(CC)(c1ccc(Br)cc1)n1ncc2c(NS(C)(=O)=O)cccc21 (single isomer, unassigned) [Compound 7, N-(1-(3-(4-bromophenyl)-4-hydroxyhexan-3-yl)-1H-indazol-4-yl)methanesulfonamide] | 1990
CCC(O)C(CC)(c1ccc(Br)cc1)n1ncc2c(NS(C)(=O)=O)cccc21 (single isomer, unassigned) [Compound 8, N-(1-(3-(4-bromophenyl)-4-hydroxyhexan-3-yl)-1H-indazol-4-yl)methanesulfonamide] | 1190
CCC(CO)(c1ccc(C(F)(F)F)cc1)n1ncc2c(NS(C)(=O)=O)cccc21 (single isomer, unassigned) [Compound 11, N-(1-(1-hydroxy-2-(4-(trifluoromethyl)phenyl)butan-2-yl)-1H-indazol-4-yl)methanesulfonamide] | 60
CCC(C(N)=O)(c1ccc(C(F)(F)F)cc1)n1ncc2c(NS(C)(=O)=O)cccc21 (single isomer, unassigned) [Compound 12, 2-(4-(methylsulfonamido)-1H-indazol-1-yl)-2-(4-(trifluoromethyl)phenyl) butanamide] | 139
CCC(c1ccc(C#N)cc1)(C(C)O)n1ncc2c(NS(C)(=O)=O)cccc21 (single isomer, unassigned) [Compound 13, N-(1-(-3-(4-cyanophenyl)-2-hydroxypentan-3-yl)-1H-indazol-4-yl)methanesulfonamide] | 225
CCC(O)C(CC)(c1ccc(C#N)cc1)n1ncc2c(NS(C)(=O)=O)cccc21 (single isomer, unassigned) [Compound 15, N-(1-(3-(4-cyanophenyl)-4-hydroxyhexan-3-yl)-1H-indazol-4-yl)methanesulfonamide] | 56
CCC(O)C(CC)(c1ccc(C#N)cc1)n1ncc2c(NS(C)(=O)=O)cc(F)cc21 (single isomer, unassigned) [Compound 19] | 136
CCC(O)C(CC)(c1ccc(C#N)cc1)n1ncc2c(NS(C)(=O)=O)cc(F)cc21 (single isomer, unassigned) [Compound 20, N-(1-(3-(4-cyanophenyl)-4-hydroxyhexan-3-yl)-6-fluoro-1H-indazol-4-yl)methanesulfonamide] | 138
CCC(c1ccc(S(F)(F)(F)(F)F)cc1)(C(C)O)n1ncc2c(NS(C)(=O)=O)cccc21 (single isomer, unassigned) [Compound 21, N-(1-{2-hydroxy-3-[4-(pentafluoro-λ^6-sulfanyl)phenyl]pentan-3-yl}-1H-indazol-4-yl)methanesulfonamide] | 333
CCC(c1ccc(S(F)(F)(F)(F)F)cc1)(C(C)O)n1ncc2c(NS(C)(=O)=O)cccc21 (single isomer, unassigned) [Compound 22, N-(1-{2-hydroxy-3-[4-(pentafluoro-λ^6-sulfanyl)phenyl]pentan-3-yl}-1H-indazol-4-yl)methanesulfonamide] | 3810
CCC(c1ccc(S(F)(F)(F)(F)F)cc1)(C(C)O)n1ncc2c(NS(C)(=O)=O)cccc21 (single isomer, unassigned) [Compound 23, N-(1-{2-hydroxy-3-[4-(pentafluoro-λ^6-sulfanyl)phenyl]pentan-3-yl}-1H-indazol-4-yl)methanesulfonamide] | 4740
CCC(c1ccc(S(F)(F)(F)(F)F)cc1)(C(C)O)n1ncc2c(NS(C)(=O)=O)cccc21 (single isomer, unassigned) [Compound 24, N-(1-{2-hydroxy-3-[4-(pentafluoro-λ^6-sulfanyl)phenyl]pentan-3-yl}-1H-indazol-4-yl)methanesulfonamide] | 152

Molecules with a lower IC50, results first:

IC50 [nM] | Compound
48 | CCC(O)C(CC)(c1ccc(C#N)cc1)n1ncc2c(NS(C)(=O)=O)cccc21 (single isomer, unassigned) [Compound 16, N-(1-(3-(4-cyanophenyl)-4-hydroxyhexan-3-yl)-1H-indazol-4-yl)methanesulfonamide]
48 | CCC(O)C(CC)(c1ccc(S(F)(F)(F)(F)F)cc1)n1ncc2c(NS(C)(=O)=O)cccc21 (single isomer, unassigned) [Compound 25, N-(1-{4-hydroxy-3-[4-(pentafluoro-λ^6-sulfanyl)phenyl]hexan-3-yl}-1H-indazol-4-yl)methanesulfonamide]
21 | CCC(O)C(CC)(c1ccc(C(F)(F)F)cc1)n1ncc2c(NS(C)(=O)=O)cc(F)cc21 (single isomer, unassigned) [Compound 17, N-(6-fluoro-1-(4-hydroxy-3-(4-(trifluoromethyl)phenyl)hexan-3-yl)-1H-indazol-4-yl)methanesulfonamide]
10 | CCC(c1ccc(Br)cc1)(C(C)O)n1ncc2c(NS(C)(=O)=O)cccc21 (single isomer, unassigned) [Compound 1, N-(1-(3-(4-bromophenyl)-2-hydroxypentan-3-yl)-1H-indazol-4-yl) methanesulfonamide]
9 | CCC(O)C(CC)(c1ccc(C(F)(F)F)cc1)n1ncc2c(NS(C)(=O)=O)cc(F)cc21 (single isomer, unassigned) [Compound 18, N-(6-fluoro-1-(4-hydroxy-3-(4-(trifluoromethyl)phenyl)hexan-3-yl)-1H-indazol-4-yl)methanesulfonamide]
8 | CCC(O)C(CC)(c1ccc(Br)cc1)n1ncc2c(NS(C)(=O)=O)cccc21 (single isomer, unassigned) [Compound 5, N-(1-(3-(4-bromophenyl)-4-hydroxyhexan-3-yl)-1H-indazol-4-yl)methanesulfonamide]
5 | CCC(O)C(CC)(c1ccc(C(F)(F)F)cc1)n1ncc2c(NS(C)(=O)=O)cccc21 (single isomer, unassigned) [Compound 10, N-(1-(4-hydroxy-3-(4-(trifluoromethyl)phenyl)hexan-3-yl)-1H-indazol-4-yl)methanesulfonamide]
3 | CCC(O)C(CC)(c1ccc(Br)cc1)n1ncc2c(NS(C)(=O)=O)cccc21 (single isomer, unassigned) [Compound 6, N-(1-(3-(4-bromophenyl)-4-hydroxyhexan-3-yl)-1H-indazol-4-yl)methanesulfonamide]
